# Measurements: article PMC6510728, “Efficacy of the novel CDK7 inhibitor QS1189 in mantle cell lymphoma” (Scientific Reports, 2019)
# Like-named read-outs stand apart in the source and are kept apart here.
# Legend:
# Z-138 cells = assay: MTT assay, cell viability; assay type: cell-based; conditions: Homo sapiens, 72 h, read-out: IC50 values (nM, mean ± S.D.)
# Method: (§1) The human lymphoma cell lines (Mino, Maver-1, Jeko-1, Z-138, OCI-Ly7, OCI-Ly10, SU-DHL-6, SU-DHL-8, U2932, Daudi, Namalwa, Raji, and Ramos) were purchased from the American Type Culture Collection (ATCC, Manassas, VA, USA) and DSMZ (Braunschweig, Germany). Cells were cultured in RPMI1640 medium containing 10% foetal bovine serum, 100 U/mL penicillin, and […] streptomycin (Invitrogen, Carlsbad, CA, USA) at 37 °C in an atmosphere of 5% CO2. OCI-Ly7 and OCI-Ly10 were cultured in IMDM. Tests for mycoplasma contamination were negative. Ibrutinib and venetocalx were purchased from Selleck Chemicals (Houston, TX, USA).
# (§2) Cells (2 × 10^4) were seeded into 96-well sterile plastic plates overnight and then treated with the relevant drugs. After 72 h, 15 μL of MTT solution (5 mg/mL) was added to each well and the plates were incubated for 4 h. Crystalline formazan was solubilized with 100 μL of 10% (w/v) SDS solution for 24 h. Absorbance at 595 nm was read spectrophotometrically using a microplate reader. The results represent at least three independent experiments, and the error bars signify the standard deviation from the mean. The IC50 values were determined using GraphPad Prism software (GraphPad, Inc., La Jolla, CA, USA).
# Jeko-1 cells = assay: MTT assay, cell viability; assay type: cell-based; conditions: Homo sapiens, 72 h, read-out: IC50 values (nM, mean ± S.D.)
# Method: as §1, §2
# Mino cells = assay: MTT assay, cell viability; assay type: cell-based; conditions: Homo sapiens, 72 h, read-out: IC50 values (nM, mean ± S.D.)
# Method: as §1, §2
# Maver-1 cells = assay: MTT assay, cell viability; assay type: cell-based; conditions: Homo sapiens, Maver1, 72 h, read-out: IC50 values (nM, mean ± S.D.)
# Method: as §1, §2
# [1] = test system: patients with relapsed or refractory MCL; design: method as in PMID 23782157; conditions: cited from earlier work
# [2] = test system: venetoclax-resistant cells (Mino/VR-1, Mino/VR-2, Maver-1/VR-1, Maver-1/VR-2); assay: MTT assay in cells with acquired resistance to venetoclax; assay type: cell-based, human; conditions: all resistant cells vs parental Mino and Maver-1, 72 h
# Method: Maver-1/VR cells were established by chronic, repeated exposure to increasing venetoclax doses up to 1 μM for more than 8 months. Maver-1/VR cells were cloned by single-cell culture, and these resistant sublines were designated as Maver-1/VR-1 and Maver-VR-2. In all studies, resistant cells were cultured in drug-fee medium for >1 week to eliminate the effects of venetoclax. The genetic identity of each subclone with the parental cells was verified by short tandem repeat (STR) analysis conducted at Cosmogenetech (Cosmogenetech co. Ltd., Seoul, Korea) according to established protocols.
# as §2
# [3] = test system: patients with relapsed or refractory MCL; design: method as in PMID 28095146; conditions: phase I first-in-human study; cited from earlier work
# U2932 cells = assay: MTT assay, cell viability; assay type: cell-based; conditions: Homo sapiens, 72 h, read-out: IC50 values (nM, mean ± S.D.)
# Method: as §1, §2
# OCI-Ly10 cells = assay: MTT assay, cell viability; assay type: cell-based; conditions: Homo sapiens, 72 h, read-out: IC50 values (nM, mean ± S.D.)
# Method: as §1, §2
# SU-DHL-6 cells = assay: MTT assay, cell viability; assay type: cell-based; conditions: Homo sapiens, 72 h, read-out: IC50 values (nM, mean ± S.D.)
# Method: as §1, §2
IC50 (OCI-Ly10 cells),IC50 (SU-DHL-6 cells),SMILES,IC50 (Z-138 cells),IC50 (Jeko-1 cells),IC50 (Mino cells),IC50 (Maver-1 cells),best overall response rate [1],complete response rate [1],median progression-free survival [1],fold higher resistance to venetoclax than the parental cells [2],best overall response rate [3],complete response rate [3],median progression-free survival [3],IC50 (U2932 cells)
–,–,"C=CC(=O)N1CCC[C@@H](n2nc(-c3ccc(Oc4ccccc4)cc3)c3c(N)ncnc32)C1 [Ibrutinib, ibrutinib]",> 10000 nM,> 10000 nM,> 1000 nM,> 10000 nM,68%,21%,13.9 months,–,–,–,–,–
35.3 nM,66.9 nM,"CC1(C)CCC(CN2CCN(c3ccc(C(=O)NS(=O)(=O)c4ccc(NCC5CCOCC5)c([N+](=O)[O-])c4)c(Oc4cnc5[nH]ccc5c4)c3)CC2)=C(c2ccc(Cl)cc2)C1 [Venetoclax, venetoclax]",> 1000 nM,> 1000 nM,275 ± 62.9 nM,2.5 ± 0.4 nM,–,–,–,10–100 fold,75%,21%,14 months,121 nM
